The values that follow come from patent US9233979B2, “Compounds that are ERK inhibitors” (Merck Sharp & Dohme Corp., priority 2012, dated 2016).

In one experiment the target is phosphorylated active hERK2 enzyme (Homo sapiens (Human), UniProt P28482). Nature of the experiment: Active Human ERK2 (hERK2) Activity Assay (IMAP-FP). It is filed as biochemical. Conditions: Table 5, 0.5 nM hERK2, 30 μM ATP, 10 point titration, read-out: AERK2 IC50. In a few lines: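 IMAP detection beads in buffer with 24 mM NaCl stopped the reaction, and fluorescence polarization was read after 60 min binding.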
phosphorylated active hERK2 enzyme, sequence (P28482 whole entry): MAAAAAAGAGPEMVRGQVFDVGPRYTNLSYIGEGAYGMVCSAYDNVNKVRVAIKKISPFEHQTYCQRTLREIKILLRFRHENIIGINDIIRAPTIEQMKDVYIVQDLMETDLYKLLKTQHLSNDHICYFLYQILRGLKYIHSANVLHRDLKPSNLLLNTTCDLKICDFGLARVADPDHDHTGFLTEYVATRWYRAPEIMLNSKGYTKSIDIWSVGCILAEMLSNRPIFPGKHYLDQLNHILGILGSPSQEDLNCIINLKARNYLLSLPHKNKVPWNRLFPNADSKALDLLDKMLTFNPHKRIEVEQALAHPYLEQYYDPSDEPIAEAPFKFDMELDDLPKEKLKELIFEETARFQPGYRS
On to `CN1C[C@H](NC(=O)Nc2cc3[nH]nc(N4CCOCC4)c3cn2)[C@@H](c2ccccc2)C1` [Example 41, 1-[(3R,4S)-1-Methyl-4-phenylpyrrolidin-3-yl]-3-(3-morpholin-4-yl-1H-pyrazolo[4,3-c]pyridin-6-yl)urea], for which the half-maximal inhibitory concentration (IC50) is 20.2 nM. Take `CCS(=O)(=O)Nc1n[nH]c2cc(NC(=O)N[C@H](C)c3ccccc3)ncc12` [Example 50, (R)—N-(6-(3-(1-Phenylethyl)ureido)-1H-pyrazolo[4,3-c]pyridin-3-yl)ethanesulfonamide]: the IC50 stood at 321 nM.

`C[C@@H](NC(=O)Nc1cc2[nH]nc(N(C)C)c2cn1)c1ccc(F)cc1` [Example 15, 1-[3-(dimethylamino)-1H-pyrazolo[4,3-c]pyridin-6-yl]-3-[(1R)-1-(4-fluorophenyl)ethyl]urea]: the IC50 turned out to be 17.3 nM.

Staying with this experiment, now noted: Table 6, 0.5 nM hERK2, 30 μM ATP, 10 point titration, read-out: AERK2 IC50.
For the molecule `CC(C)(O)[C@@H](NC(=O)Nc1cc2[nH]nc(NC(=O)N3CCC(F)(F)CC3)c2cn1)c1ccc(F)cc1` [Example 132, 4,4-difluoro-N-[6-({[(1S)-1-(4-fluorophenyl)-2-hydroxy-2-methylpropyl]-carbamoyl}amino)-1H-pyrazolo[4,3-c]pyridin-3-yl]-piperidine-1-carboxamide], the IC50 was determined as 4.9 nM. Take `C[C@@H](NC(=O)Nc1cc2[nH]nc(NC(=O)N3CC(C)(O)C3)c2cn1)c1ccccc1` [Example 134, 3-hydroxy-3-methyl-N-[6-({[(1R)-1-phenylethyl]-carbamoyl}-amino)-1H-pyrazolo[4,3-c]pyridin-3-yl]-azetidine-1-carboxamide]: the IC50 amounted to 8.6 nM. Regarding `COc1cc([C@@H](C)NC(=O)Nc2cc3[nH]nc(NC(=O)N[C@H](C)c4ccc(Cl)c(OC)c4)c3cn2)ccc1Cl` [Example 314, 1,1′-(1H-pyrazolo[4,3-c]pyridine-3,6-diyl)bis(3-((R)-1-(4-chloro-3-methoxyphenyl)ethyl)urea)], the IC50 is 732 nM. Consider `C[C@H](O)[C@@H](NC(=O)Nc1cc2[nH]nc(N3CCOCC3)c2cn1)c1ccc(F)cc1` [Example 98, 1-[(1S,2S)-1-(4-fluorophenyl)-2-hydroxypropyl]-3-(3-morpholin-4-yl-1H-pyrazolo[4,3-c]-pyridin-6-yl)urea], for which the IC50 turned out to be 0.2 nM. `CN1C[C@@H](NC(=O)Nc2cc3[nH]nc(N)c3cn2)[C@H](c2ccccc2)C1` [Example 277, 1-(3-amino-1H-pyrazolo[4,3-c]pyridin-6-yl)-3-[(3S,4R)-1-methyl-4-phenylpyrrolidin-3-yl]urea]: the IC50 amounted to 3.2 nM. Still for that read-out and setting: the result for `C[C@@H](NC(=O)Nc1cc2[nH]nc(N3CC4CCC(C3)O4)c2cn1)c1ccccc1` [Example 453, 1-[3-(8-oxa-3-azabicyclo[3.2.1]-oct-3-yl)-1H-pyrazolo[4,3-c]-pyridin-6-yl]-3-[(1R)-1-phenylethyl]urea] reads 3.4 nM; that for `CC(Nc1n[nH]c2cc(NC(=O)N[C@H](C)c3ccccc3)ncc12)C(F)(F)F` (stereo partly drawn) [Example 418, 1-[(1R)-1-phenylethyl]-3-{3-[(2,2,2-trifluoro-1-methylethyl)amino]-1H-pyrazolo[4,3-c]pyridin-6-yl}urea], 3.2 nM; that for `CC(C)(O)[C@@H](NC(=O)Nc1cc2[nH]nc(N3CC(F)(F)C3)c2cn1)c1ccccc1` [Example 367, 1-[3-(3,3-difluoro-azetidin-1-yl)-1H-pyrazolo[4,3-c]-pyridin-6-yl]-3-[(1S)-2-hydroxy-2-methyl-1-phenylpropyl]urea], 0.6 nM.

Take `C[C@@H]1CN(c2n[nH]c3cc(NC(=O)NC(c4ccc(F)cc4)C(C)(C)O)ncc23)C[C@H](C)O1` (stereo partly drawn) [Example 435, 1-{3-[(2R,6S)-2,6-dimethylmorpholin-4-yl]-1H-pyrazolo[4,3-c]-pyridin-6-yl}-3-[1-(4-fluorophenyl)-2-hydroxy-2-methylpropyl]urea]: the IC50 is 1.6 nM. As for `CCNc1n[nH]c2cc(NC(=O)N[C@@H]3CCOc4ccccc43)ncc12` [Example 234, 1-[(4R)-3,4-dihydro-2H-chromen-4-yl]-3-[3-(ethylamino)-1H-pyrazolo[4,3-c]pyridin-6-yl]urea], the IC50 is 52 nM. Still for that read-out and setting: for `COCc1nc(NC(=O)N[C@H](C)c2ccccc2)cc2[nH]nc(N)c12` [Example 69, (R)-1-(3-amino-4-(methoxymethyl)-1H-pyrazolo[4,3-c]pyridin-6-yl)-3-(1-phenylethyl)urea] the value was 1.5 nM; for `COC(=O)Nc1n[nH]c2cc(NC(=O)NC3CNc4ccccc4C3)ncc12` (stereo not drawn) [Example 293, methyl {6-[(1,2,3,4-tetrahydroquinolin-3-ylcarbamoyl)-amino]-1H-pyrazolo[4,3-c]-pyridin-3-yl}-carbamate], 5.8 nM; for `COCc1nc(NC(=O)N[C@H](C)c2ccccc2)cc2[nH]nc(NC(C)=O)c12` [Example 72, (R)—N-(4-(methoxymethyl)-6-(3-(1-phenylethyl)ureido)-1H-pyrazolo[4,3-c]pyridin-3-yl)acetamide], 106 nM.

With `C=C(C)C1CC(CNc2n[nH]c3cc(NC(=O)N[C@H](C)c4ccccc4)ncc23)C1` (stereo partly drawn) [Example 180, 1-[3-({[3-(1-methylethenyl)-cyclobutyl]methyl}amino)-1H-pyrazolo[4,3-c]-pyridin-6-yl]-3-[(1R)-1-phenylethyl]urea], the IC50 worked out at 17.9 nM. On to `CC(C)N1CCc2nc(NC(=O)N[C@H](C)c3ccccc3)cc3[nH]nc1c23` [Example 142, (R)-1-(3-isopropyl-1,3,4,5-tetrahydropyrazolo[3,4,5-de][1,6]naphthyridin-7-yl)-3-(1-phenylethyl)urea], for which the IC50 was found to be 1.2 nM. Same read-out and setting: the result for `C[C@@H](NC(=O)Nc1cc2[nH]nc(NC(=O)c3ccncc3)c2cn1)c1ccccc1` [Example 214, N-[6-({[(1R)-1-phenylethyl]-carbamoyl}amino)-1H-pyrazolo[4,3-c]pyridin-3-yl]-pyridine-4-carboxamide] reads 2.9 nM; that for `COCC1CN(c2n[nH]c3cc(NC(=O)N[C@H](COC)c4ccccc4)ncc23)C1` [Example 82, 1-{3-[3-(methoxy-methyl)azetidin-1-yl]-1H-pyrazolo[4,3-c]-pyridin-6-yl}-3-[(1S)-2-methoxy-1-phenylethyl]urea], 3.7 nM. Turning to `COC(=O)Nc1n[nH]c2cc(NC(=O)N[C@H](COC(F)F)c3ccccc3)ncc12` [Example 288, methyl [6-({[(1S)-2-(difluoro-methoxy)-1-phenylethyl]-carbamoyl}amino)-1H-pyrazolo[4,3-c]pyridin-3-yl}-carbamate], the IC50 amounted to 0.6 nM. For `C[C@@H](O)[C@@H](NC(=O)Nc1cc2[nH]nc(N3CCc4ncsc4C3)c2cn1)c1ccccc1` [Example 387, 1-[3-(6,7-dihydro[1,3]-thiazolo[5,4-c]-pyridin-5(4H)-yl)-1H-pyrazolo[4,3-c]pyridin-6-yl]-3-[(1S,2R)-2-hydroxy-1-phenylpropyl]urea], the IC50 came out at 0.5 nM. `COC(=O)Nc1n[nH]c2cc(NC(=O)NCc3ccccc3OC)ncc12` [Example 297, methyl (6-{[(2-methoxybenzyl)-carbamoyl]amino}-1H-pyrazolo[4,3-c]pyridin-3-yl)-carbamate]: the IC50 amounted to 2 nM. Same read-out and setting: the result for `C[C@@H](NC(=O)Nc1cc2[nH]nc(NC(=O)C3CCC3)c2cn1)c1ccccc1` [Example 201, N-[6-({[(1R)-1-phenylethyl]-carbamoyl}amino)-1H-pyrazolo[4,3-c]pyridin-3-yl]-cyclobutane-carboxamide] reads 0.5 nM.

For orientation: IC50 means the concentration that gives 50% inhibition.
